# Values of other authors as cited in US7645767B2, “Pharmaceutical compositions for treating chronic pain and pain associated with neuropathy” (Trinity Laboratories, Inc., priority 2006, dated 2010).
# Key:
# [1] = for accumulation during multiple dose treatment: multiple dose treatment with tramadol
# [2] = test system: analgesic effect
# [3] = target: μ-opiate receptors (Homo sapiens, UniProt P35372)
# [4] = test system: complex regional pain syndrome and neuropathic pain
# Chain of μ-opiate receptors (P35372 whole entry): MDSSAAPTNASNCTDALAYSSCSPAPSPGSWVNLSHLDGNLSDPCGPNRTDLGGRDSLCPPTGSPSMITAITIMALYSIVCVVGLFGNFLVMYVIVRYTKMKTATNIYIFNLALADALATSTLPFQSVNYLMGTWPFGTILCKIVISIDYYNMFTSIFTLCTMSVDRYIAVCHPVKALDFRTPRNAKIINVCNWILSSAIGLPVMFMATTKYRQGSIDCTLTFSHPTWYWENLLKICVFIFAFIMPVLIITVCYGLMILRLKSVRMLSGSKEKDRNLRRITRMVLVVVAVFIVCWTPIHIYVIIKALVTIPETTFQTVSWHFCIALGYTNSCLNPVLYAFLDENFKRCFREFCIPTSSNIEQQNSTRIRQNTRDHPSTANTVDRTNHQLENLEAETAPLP
compound,measurement,setting,value
"COc1cccc(C2(O)CCCCC2CN(C)C)c1 (racemic) [tramadol, (+/−)-trans (RR,SS)-2-[(dimethylamino)methyl]-1-(3-methoxyphenyl)cyclohexanol]",time to peak serum concentrations,[1]; after oral administration,≤ 2 h
same,accumulation during multiple dose treatment,[1],approximately 2 fold
same,duration of the analgesic effect,[2]; after a single oral dose of tramadol 100 mg,about 6 hours
same,"affinity for μ-opiate receptors, fold less than codeine",[3]; relative to codeine,10 fold
same,"affinity for μ-opiate receptors, fold less than d-propoxyphene",[3]; relative to d-propoxyphene,100 fold
same,affinity for μ-opiate receptors compared with dextromethorphan,[3]; relative to dextromethorphan,equivalent
same,"affinity for μ-opiate receptors, fold less than morphine",[3]; relative to morphine,"6,000 fold"
CN(C)C[C@H]1CCCC[C@]1(O)c1cccc(O)c1 [O-desmethyltramadol],half-life,"[1]; after a single oral dose of 100 mg tramadol, 2-compartmental elimination",9 h
same,accumulation during multiple dose treatment,[1],approximately 2 fold
same,analgesic potency compared with parent drug,[2]; relative to tramadol,at least twice
"COc1cc(CNC(=O)CCCCC=CC(C)C)ccc1O [capsaicin, 8-methyl-N-vanillyl-6-nonenamide]",absorption in the jejunum,"oral dosing of rats, after 3 hours",85%
same,"time to distribution to brain, spinal cord, liver and blood","rats, i.v. administration",≤ 20 min
same,duration of sustained analgesia,[4]; capsaicin concentration 5-10% under regional anesthesia,1 to 8 weeks
same,dropout rates due to burning pain at the site of application,[4]; topical capsaicin trials,33 to 67%
